Reference: patent EP0333831B1, “USE OF METALLOPORPHYRINS TO REVERSE THE TOXIC EFFECT OF TUMOR THERAPY” (priority 1987, dated 1989)

How the values were obtained:
Type in all cases: in vivo, Sprague-Dawley rats
[1] = test system: cytochrome P-450; assay: hepatic microsomal cytochrome P-450 content in rats treated with doxorubicin, with or without SnPP
Procedure: (§1) The efficacy of the products of the invention for their newly discovered utility was established by experiments with three groups of male Sprague-Dawley rats (males, 150-200 grams, 16 per group). The rats were maintained on ad lib water and powdered rat chow (Purina) during the experiments. Group A was untreated, Group B was treated subcutaneously with doxorubicin alone on day 0, and Group C was treated with SnPP one day prior to doxorubicin which was administered on day 0.
(§2) The animals utilized in the tests were acclimated in metabolic cages maintained in a controlled environment with a 12h/12h light/dark cycle.
(§3) The compositions for parenteral administration were freshly prepared for each injection by addition of 0.4 N NaOH (20% v/v) to prepare a solution at pH 12, adjusted to pH 7.5 with 1 NHCl and made to final volume with 0.9% saline. The dosage level per injection was 50 µmol/kg b.w. Control animals were administered an equivalent amount of saline.
(§4) Animals were deprived of food but allowed free access to water for 16 hours prior to sacrifice. […] Cytochrome P-450 content was determined by the methods of Omura and Sato [J. Biol. Chem., 239: 2379 (1966) and 239: 2370 (1966)], and protein concentration by the method of Lowry et al [J. Biol. Chem., 193 265 (1951)] using crystalline bovine serum albumin as standard. […]

[2] = test system: hepatic heme oxygenase; assay: hepatic heme oxygenase activity in rats treated with doxorubicin, with or without SnPP; conditions: SnPP (50 µmol/kg b.w.) one day prior to doxorubicin 10 mg/kg b.w.; compared to the group treated with doxorubicin alone
Procedure: as §1, §2, §3, §4

[3] = test system: microsomal heme; assay: hepatic microsomal heme content in rats treated with doxorubicin, with or without SnPP
Procedure: as §1, §2, §3, §4

[4] = test system: ALA synthetase; assay: hepatic ALA synthetase activity in rats treated with doxorubicin, with or without SnPP; conditions: SnPP (50 µmol/kg b.w.) one day prior to doxorubicin 10 mg/kg b.w.; compared to the group treated with doxorubicin alone
Procedure: as §1, §2, §3, §4

[5] = test system: heme metabolism
Procedure: as §1
It will be seen that the increase in heme oxygenase activity and decrease in ALA synthetase activity and microsomal content of cytochrome P-450 were at a maximum on day 2 and returned to normal by day 10.
as §2, §3
Animals were deprived of food but allowed free access to water for 16 hours prior to sacrifice. Livers were perfused in situ with ice-cold saline and homogenized in tris-HCL (0.01 M, pH 7.4) buffer containing sucrose (0.25 M). Homogenates (25% w/v) were centrifuged at 9000 g for 20 min, and the resulting mitochondrial pellet was used for the assay of ALA-synthetase activity. The 9000 xg supernatant was centrifuged at 105,000 xg for 60 min in a Beckman L5-50 ultracentrifuge. The microsomal pellet was resuspended in a minimum volume of potassium phosphate buffer (0.1 M, pH 7.4) and the cytosol was used as a source of biliverdin reductase. Cytochrome P-450 content was determined by the methods of Omura and Sato [J. Biol. Chem., 239: 2379 (1966) and 239: 2370 (1966)], and protein concentration by the method of Lowry et al [J. Biol. Chem., 193 265 (1951)] using crystalline bovine serum albumin as standard. […]

[6] = SnPP one day prior to doxorubicin 10 mg/kg b.w., compared to the untreated group
[7] = doxorubicin 10 mg/kg b.w. subcutaneous, measured 2 days after administration, vs untreated, P < 0.05

Molecule | levels of hepatic cytochrome P-450 [1, 6] | decrease in hepatic heme oxygenase activity [2] | levels of microsomal heme [3, 6] | increase in hepatic ALA-synthetase activity [4] | prevention of doxorubicin-induced variations in heme metabolism ([5]; metalloporphyrin administered one day prior to doxorubicin) | decrease in the microsomal content of cytochrome P-450 [1, 7] | decrease in the microsomal content of heme [3, 7] | time of maximum increase in heme oxygenase activity and decrease in ALA synthetase activity and microsomal content of cytochrome P-450 ([5]; rat, in vivo) | time of return to normal of heme oxygenase activity, ALA synthetase activity and microsomal cytochrome P-450 ([5]; rat, in vivo)
tin protoporphyrin-IX [SnPP] | substantially identical to those in the untreated group | 92% | substantially identical to those in the untreated group | 35% | prevented the occurrence of these variations in heme metabolism |  |  |  | 
COc1cccc2c1C(=O)c1c(O)c3c(c(O)c1C2=O)C[C@@](O)(C(=O)CO)C[C@@H]3O[C@H]1C[C@H](N)[C@H](O)[C@H](C)O1 [doxorubicin, reference compound] |  |  |  |  |  | 18% | 45% | 2 days | ≤ 10 days
